Data taken from patent US20240409543A1, “PYRROLOPYRAZOLE SPIRO COMPOUND” (CHIA TAI TIANQING PHARMACEUTICAL GROUP CO., LTD., priority 2021, published 2024).
pIC50: −log10 of the molar value.

How the values were obtained:
[1] = system: ERK phosphorylation in H358 cells; test: Inhibitory activity against ERK phosphorylation in H358 cells (HTRF Phospho-ERK1/2 kit); format: cell-based; details: Homo sapiens, NCI-H358; starved H358 cells, 1 h compound incubation; read-out: H358 cell ERK phosphorylation IC50
Description: H358 cells purchased from Nanjing Cobioer Biosciences Co., Ltd., 1640 medium purchased from Biological industries, fetal bovine serum purchased from Biosera, and Advanced Phospho-ERK1/2 (THR202/TYR204) KIT purchased from Cisbio.
• 1. H358 cells were plated in a transparent 96-well cell culture plate, with 80 μL of cell suspension per well, each well containing 10000 H358 cells. The cell plate was incubated in a CO2 incubator at 37° C. overnight. • 2. The cell supernatant was discarded, and a starvation medium (1640+0.02% fetal bovine serum+1% […]) was added at 80 μL/well. The cell plate was then incubated in a CO2 incubator for cell starvation treatment overnight; • 3. Each test compound was diluted with 100% DMSO to 4 mM as the first concentration, and then diluted in a 5-fold gradient to the 8th concentration (i.e., from 4 mM to […]) using a pipette. 1 μL of the compound was then added to 79 μL of cell starvation medium. The mixture was mixed well, and then the compound solution was added to the corresponding wells of the cell plate at 20 μL/well. The cell plate was then put back to the CO2 incubator for incubation for another 1 h. At that time, the concentration of the compound ranged from 10 μM to 0.0256 nM, with the concentration of DMSO being 0.25%. • 4. After the incubation was completed, the cell supernatant was discarded, and a cell lysis buffer was added at 50 μL/well. The plate was then incubated with shaking at room temperature for 30 min. 5. The Phospho-ERK1/2 Eu Cryptate antibody and Phospho-ERK1/2 d2 antibody were diluted in a 20-fold gradient with the Detection buffer. • 6. 16 μL of the cell lysate supernatant from each well was transferred to a new 384-well white microplate, and then 2 μL of the Phospho-ERK1/2 Eu Cryptate antibody dilution and 2 μL of the Phospho-ERK1/2 d2 antibody dilution were added to each well. The mixture was incubated at room temperature for 4 h. • 7. After the incubation was completed, HTRF values were read using a multimode microplate reader, with an excitation wavelength of 320 nm and emission wavelengths of 615 nm and 665 nm.
The original data were converted to inhibition rates and then the IC50 values were obtained by curve fitting using a four-parameter method.

[2] = molecular target: T1, SHP2 (Homo sapiens, UniProt Q06124); test: SHP2 in-vitro enzymology experiment (Homogeneous Full Length SHP-2 Assay Kit, DiFMUP substrate); format: biochemical; details: 60 min pre-incubation, 30 min reaction at 25° C.
T1 construct: Homogeneous Full Length SHP-2 Assay Kit (purchased from BPS Bioscience); purchased BPS Bioscience
T1 sequence (Q06124 1-593): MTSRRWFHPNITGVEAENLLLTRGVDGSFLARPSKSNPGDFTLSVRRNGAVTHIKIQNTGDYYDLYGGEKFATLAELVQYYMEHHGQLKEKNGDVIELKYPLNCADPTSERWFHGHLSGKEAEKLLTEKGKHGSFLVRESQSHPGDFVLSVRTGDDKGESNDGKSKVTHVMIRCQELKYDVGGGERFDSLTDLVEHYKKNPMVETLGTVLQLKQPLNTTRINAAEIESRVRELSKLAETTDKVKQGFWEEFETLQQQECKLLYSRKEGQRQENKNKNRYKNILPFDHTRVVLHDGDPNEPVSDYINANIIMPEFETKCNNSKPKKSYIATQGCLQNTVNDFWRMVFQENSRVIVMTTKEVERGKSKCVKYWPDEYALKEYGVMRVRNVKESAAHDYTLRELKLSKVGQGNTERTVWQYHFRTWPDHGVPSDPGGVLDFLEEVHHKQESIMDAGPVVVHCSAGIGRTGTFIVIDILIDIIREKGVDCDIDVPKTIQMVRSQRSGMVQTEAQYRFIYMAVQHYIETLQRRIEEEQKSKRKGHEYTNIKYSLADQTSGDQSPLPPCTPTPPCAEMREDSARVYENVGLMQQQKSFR
Description: Experimental materials: Homogeneous Full Length SHP-2 Assay Kit (purchased from BPS Bioscience) and NIVO multimode microplate reader.
Preparation of 1× buffer (ready-to-use): 5× buffer was diluted with deionized water to give 1× buffer, which was then placed on ice for later use.
Each test compound was diluted with 100% DMSO to 100 μM as the first concentration, and then diluted in a 4-fold gradient to the 8th concentration (i.e., from 100 μM to 6.1 nM) using a multi-channel pipette. Each gradient of the test compound was diluted with 1× buffer to prepare a working solution with 10% DMSO. The resulting solution was then added to the corresponding wells of a plate at 5 μL/well, with duplicate wells set up. The plate was then centrifuged at 1000 rpm for 1 min.
18 μL of a prepared reaction mixed solution (containing 12.25 μL of deionized water, 5 μL of 5× buffer; 0.25 μL of SHP-2 substrate polypeptide (100 μM), and 0.5 μL of DTT (250 mM)) was added to each well. The plate was then centrifuged at 1000 rpm for 1 min.
An SHP-2 enzyme was diluted to 0.1 ng/μL with 1× buffer. The resulting solution was added to the corresponding wells at 2 μL/well, and 2 μL of 1× buffer and […] were added to each negative control well. This step was performed on ice. The reaction system was then incubated at 25° C. for 60 min for compound pre-incubation.
After the compound pre-incubation was completed, 25 μL of a substrate working solution (containing 19.45 μL of deionized water, 5 μL of 5× buffer; 0.5 μL of DTT (250 mM), and 0.05 μL of SHP-2 Substrate (DiFMUP) (10 mM)) was added to each well, and the reaction system was allowed to react at 25° C. for 30 min. At that time, the final concentration gradient of the compound ranged from 1 μM to 0.061 nM. After the reaction was completed, the fluorescence values were read using the NIVO multimode microplate reader, with an excitation wavelength of 360 nm and an emission wavelength of 460 nm.
Detection of compound background reading values: Each gradient of the test compound diluted with 100% DMSO was added to a new compound plate at 5 μL/well, and then 1× buffer was added at 45 μL/well to achieve a 10-fold dilution to prepare a working solution with 10% DMSO. Next, the compound working solution was added to the detection plate at 5 μL/well, and then 1× buffer was added at 45 μL/well to achieve another 10-fold dilution, bringing the final concentration of DMSO to 1%. The plate was then centrifuged at 1000 rpm for 1 min. The fluorescence values were read using the multimode microplate reader, with an excitation wavelength of 360 nm and an emission wavelength of 460 nm.
The original data were converted to inhibition rates and the IC50 values were obtained by curve fitting using a four-parameter method.

Compound | pIC50 [1] | pIC50 [2]
Cc1nc(N2CCC3(CC2)Cn2nccc2C3N)c(CO)nc1Sc1ccnc(N)c1Cl (centres unmarked) [Compound 1] | 7.67 | 8.76
CNc1nccc(Sc2nc(CO)c(N3CCC4(CC3)Cn3nccc3C4N)nc2C)c1Cl (centres unmarked) [Compound 2] | 7.07 | 8.54
Cc1nc(N2CCC3(CC2)Cn2nccc2C3N)c(CO)nc1Sc1cccnc1C(F)(F)F (centres unmarked) [Compound 4] | 7.12 | 8.67
Cc1nc(N2CCC3(CC2)Cn2nccc2C3N)c(CO)nc1Sc1ccnc(N)c1F (centres unmarked) [Compound 6] | 7.24 | 8.50
